We go through two molecules from patent publication US9023789B2, “Amylin analogs and pharmaceutical compositions thereof” (Novo Nordisk A/S, priority 2012, dated 2015).

Molecules are shown by their SMILES. Values after ≈ are worked out from the molar mass of the structure shown. Read-outs that look alike come from different tables or passages of the source. Numbered stars: 1 amine (or outer) side, 2 acyl side, 3 side chain; on linkers, the order of the positions; unused ones are H or OH. Bridge positions count the residues as written; N and C are the ends. Side chains are listed from the residue outwards. Peptide text beside a SMILES is read from it. * marks the point of attachment. C20 diacid = O=C(O)CCCCCCCCCCCCCCCCCCC(=O)*; γGlu = O=C(O)[C@H](CCC(=O)[*:2])N[*:1]; AEEA = NCCOCCOCC(=O)O

One may read the EC50 as the concentration at which the effect is half-maximal. The term IC50 denotes the concentration that inhibits the measured activity by half.

Data set [1] has as its target T1, human amylin 3(a) receptor (human calcitonin receptor + RAMP-3) in BHK570 cells (Homo sapiens, UniProt O60896+P30988).
T1 construct: expressed in transfected cells
The data set can be described thus: ASSAY (II)a functional assay, human amylin receptor (CRE luciferase). Type of data set: cell-based. The following applies: for EC50: human amylin receptor functional potency, assay (II), read-out: hAmylin-R funct. EC50. In short, it runs like this: (§1)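 Ligand exposure 3 h at 37 °C, 5% CO2 in DMEM with 10% FBS, 10 mM Hepes pH 7.4. cAMP-driven luciferase read by luminescence after 30 min LucLite at room temperature.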

In data set [2] the target is T2, human calcitonin (a) receptor in BHK570 cells (Homo sapiens, UniProt P30988).
T2 construct: expressed in transfected cells
T2 sequence (P30988 25-474): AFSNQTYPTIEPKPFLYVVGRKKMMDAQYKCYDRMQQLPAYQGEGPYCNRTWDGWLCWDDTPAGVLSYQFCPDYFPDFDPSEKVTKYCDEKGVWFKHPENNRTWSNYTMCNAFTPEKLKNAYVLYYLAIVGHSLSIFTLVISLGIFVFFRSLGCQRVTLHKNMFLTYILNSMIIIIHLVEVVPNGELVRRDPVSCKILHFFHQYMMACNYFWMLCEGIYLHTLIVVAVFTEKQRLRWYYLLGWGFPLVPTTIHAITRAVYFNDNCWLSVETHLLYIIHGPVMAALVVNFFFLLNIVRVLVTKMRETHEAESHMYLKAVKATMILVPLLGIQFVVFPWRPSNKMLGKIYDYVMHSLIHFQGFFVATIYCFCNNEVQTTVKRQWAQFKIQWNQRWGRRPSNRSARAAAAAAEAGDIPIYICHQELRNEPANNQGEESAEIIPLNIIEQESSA
Nature of the data set: ASSAY (II)a functional assay, human calcitonin receptor (CRE luciferase). Type of data set: cell-based. The following applies: read-out: hCTR funct. EC50. In short, it runs like this:
as §1

Data set [3] can be described thus: ASSAY (IV) determination of solubility. It is filed as physicochemical. In short, it runs like this: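 Polypeptide in water at […] mixed 1:1 with 100 mM buffers of pH 3.0-8.0 (glycylglycine pH 3-5, bistrispropane pH 6-8). Held 18 h at room temperature, then centrifuged; concentration remaining in solution measured by UPLC.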
For data set [4], the target named is T3, human amylin receptor (membranes from Amylin 3(a)/CRE-luc cells) (Homo sapiens, UniProt O60896+P30988).
T3 construct: expressed in transfected cells
T3 sequence (P30988 25-474): T2 sequence (P30988 25-474)
T3 sequence (O60896 24-148 partner): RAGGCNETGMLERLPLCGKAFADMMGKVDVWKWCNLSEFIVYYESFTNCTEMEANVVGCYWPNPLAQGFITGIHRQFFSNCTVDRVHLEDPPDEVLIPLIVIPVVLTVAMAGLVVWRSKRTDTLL
Nature of the data set: ASSAY (V) binding to the human amylin receptor (SPA, 125I-rat amylin).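 For all read-outs here: competition binding of cell membranes (35 ng/µL) mixed with SPA beads in 384-well plates at 40 µL total volume, read by scintillation counting.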 The note with it: for IC50: Table 4, read-out: hAmylin-R bind IC50.

Data set [5] has as its target T4, human calcitonin receptor (Homo sapiens, UniProt P30988).
T4 construct: expressed in transfected cells
T4 sequence (P30988 25-474): T2 sequence (P30988 25-474)
The data set can be described thus: ASSAY (VII) binding to the human calcitonin receptor (SPA, 125I-Calcitonin).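 Note: cell membranes (35 ng/µL) combined with SPA beads in 40 µL of pH 7.4 Hepes buffer, 384-well format, signal counted on a TopCounter instrument.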 The note with it: read-out: hCTR bind IC50.

The next data set addresses T5, rat calcitonin receptor (Rattus norvegicus, UniProt P32214).
T5 construct: expressed in transfected cells; host or cells: BHK tk'ts 13 (transient, FuGENE 6), membranes
T5 sequence (P32214 25-479 isoform P32214-2 limits assumed): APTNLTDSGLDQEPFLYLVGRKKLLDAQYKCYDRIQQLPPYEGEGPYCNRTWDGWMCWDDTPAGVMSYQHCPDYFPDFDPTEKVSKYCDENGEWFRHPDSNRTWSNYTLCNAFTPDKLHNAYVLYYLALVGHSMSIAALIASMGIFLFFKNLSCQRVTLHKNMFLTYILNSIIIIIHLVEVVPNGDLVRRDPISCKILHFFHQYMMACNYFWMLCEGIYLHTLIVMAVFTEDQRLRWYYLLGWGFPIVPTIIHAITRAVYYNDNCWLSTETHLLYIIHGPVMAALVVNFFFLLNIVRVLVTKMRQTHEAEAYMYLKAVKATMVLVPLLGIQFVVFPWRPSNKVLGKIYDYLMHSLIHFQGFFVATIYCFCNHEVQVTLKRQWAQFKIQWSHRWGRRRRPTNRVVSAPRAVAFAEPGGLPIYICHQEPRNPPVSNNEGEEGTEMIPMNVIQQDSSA
Nature of the data set: ASSAY (VIII) binding to the rat calcitonin receptor. The note with it: Table 7, read-out: rCTR bind IC50. Put shortly: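 Membranes were prepared from BHK tk′ts 13 cells transiently transfected with rat calcitonin receptor. Cells were grown in DMEM with 10% FBS and harvested approximately 48 hours after transfection.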

The mark [6] stands for this setting: hCTR funct. EC50 divided by hAmylin-R funct. EC50.
The mark [7] stands for this setting: human functional selectivity: hCTR funct. EC50 / hAmylin-R funct. EC50.
The mark [8] stands for this setting: bistrispropane buffer, pH 6.5, read-out: Solubility pH 6.5 Concentration.
The mark [9] stands for this setting: bistrispropane buffer, pH 7.5, read-out: Solubility pH 7.5 Concentration.
Where [10] appears, read: bistrispropane buffer, pH 6.0, read-out: Solubility pH 6.0 Concentration.
Setting [11] is: bistrispropane buffer, pH 7.0, read-out: Solubility pH 7.0 Concentration.
Setting [12] is: bistrispropane buffer, pH 8.0, read-out: Solubility pH 8.0 Concentration.
[13] abbreviates: glycylglycine buffer, pH 3.0, read-out: Solubility pH 3.0 Concentration.
The mark [14] stands for this setting: glycylglycine buffer, pH 4.0, read-out: Solubility pH 4.0 Concentration.
The mark [15] stands for this setting: glycylglycine buffer, pH 5.0, read-out: Solubility pH 5.0 Concentration.
Setting [16] is: Table 5, selectivity, hCTR bind IC50 / hAmylin-R bind IC50.
The mark [17] stands for this setting: Table 5a, selectivity, hCTR bind IC50 / hAmylin-R bind IC50.
Where [18] appears, read: Table 5b, selectivity, hCTR bind IC50 / hAmylin-R bind IC50.
The mark [19] stands for this setting: Table 5c, selectivity, hCTR bind IC50 / hAmylin-R bind IC50.
[20] abbreviates: Table 7, human binding selectivity, included for comparison.
The mark [21] stands for this setting: Table 7a (preferred compounds), human binding selectivity, included for comparison.
Where [22] appears, read: ratio of human calcitonin receptor binding IC50 to human amylin receptor binding IC50.

For the molecule `CC[C@H](C)[C@H](NC(=O)[C@H](C)NC(=O)CNC(=O)[C@H](Cc1ccccc1)NC(=O)[C@H](CC(N)=O)NC(=O)[C@@H]1CCCN1C(=O)[C@H](CO)NC(=O)[C@H](CO)NC(=O)[C@H](Cc1c[nH]cn1)NC(=O)[C@H](CCCNC(=N)N)NC(=O)[C@H](CC(C)C)NC(=O)[C@H](Cc1ccccc1)NC(=O)[C@H](CC(N)=O)NC(=O)[C@H](C)NC(=O)[C@H](CC(C)C)NC(=O)[C@H](CCCNC(=N)N)NC(=O)[C@H](CCC(N)=O)NC(=O)[C@@H](NC(=O)[C@H](C)NC(=O)[C@@H]1CSSC[C@H](NC(=O)[C@@H](N)CCCCNC(=O)COCCOCCNC(=O)CCCCCCCCCCCCCCCCCCC(=O)O)C(=O)N[C@@H](CC(N)=O)C(=O)N[C@@H]([C@@H](C)O)C(=O)N[C@@H](C)C(=O)N[C@@H]([C@@H](C)O)C(=O)N1)[C@@H](C)O)C(=O)N1CCC[C@H]1C(=O)N[C@@H](CO)C(=O)N[C@@H](CO)C(=O)N[C@H](C(=O)N[C@@H](CC(N)=O)C(=O)N[C@H](C(=O)NCC(=O)N[C@@H](CO)C(=O)N[C@@H](CC(N)=O)C(=O)N[C@H](C(=O)N[C@@H](Cc1ccc(O)cc1)C(N)=O)[C@@H](C)O)C(C)C)[C@@H](C)O` [Example 43], the “Ratio hCT/hAmylin funct.” value in data set [1] (setting [6]) and in data set [1] (setting [7]) was 6.5 throughout. The values for the EC50 in data set [1] and in data set [2] were 0.141 nM and 0.92 nM, respectively. Moreover, the solubility at 18 h in data set [3] (setting [8]), in data set [3] (setting [9]), in data set [3] (setting [10]), in data set [3] (setting [11]), in data set [3] (setting [12]) and in data set [3] (setting [13]) was at least 200 µM throughout. Moreover, the solubility at 18 h in data set [3] (setting [14]) and in data set [3] (setting [15]) was at least 200 µM in each case. Further, the IC50 in data set [4] was 0.076 nM; in data set [5], 2.64 nM; on rat calcitonin receptor, 7.6 nM. Moreover, the “Ratio hCT/hAmylin binding” value in data set [4] (setting [16]), in data set [4] (setting [17]), in data set [4] (setting [18]), in data set [4] (setting [19]), in data set [4] (setting [20]) and in data set [4] (setting [21]) was 34.7 throughout. Moreover, the “Ratio hCT/hAmylin binding” value in data set [4] (setting [22]) is recorded as 34.7.

Take `CC[C@H](C)[C@H](NC(=O)[C@H](C)NC(=O)CNC(=O)[C@H](Cc1ccccc1)NC(=O)[C@H](CC(N)=O)NC(=O)[C@@H]1CCCN1C(=O)[C@H](CO)NC(=O)[C@H](CO)NC(=O)[C@H](Cc1c[nH]cn1)NC(=O)[C@H](CCCNC(=N)N)NC(=O)[C@H](CC(C)C)NC(=O)[C@H](Cc1ccccc1)NC(=O)[C@@H](NC(=O)[C@H](C)NC(=O)[C@H](CC(C)C)NC(=O)[C@H](CCCNC(=N)N)NC(=O)[C@H](CCC(N)=O)NC(=O)[C@@H](NC(=O)[C@H](C)NC(=O)[C@@H]1CSSC[C@H](NC(=O)[C@@H](N)CCCCNC(=O)COCCOCCNC(=O)CC[C@H](NC(=O)CCCCCCCCCCCCCCCCCCC(=O)O)C(=O)O)C(=O)N[C@@H](CC(N)=O)C(=O)N[C@@H]([C@@H](C)O)C(=O)N[C@@H](C)C(=O)N[C@@H]([C@@H](C)O)C(=O)N1)[C@@H](C)O)[C@@H](C)O)C(=O)N1CCC[C@H]1C(=O)N[C@@H](CO)C(=O)N[C@@H](CO)C(=O)N[C@H](C(=O)N1CCC[C@H]1C(=O)N[C@H](C(=O)NCC(=O)N[C@@H](CO)C(=O)N[C@@H](CC(N)=O)C(=O)N[C@H](C(=O)N[C@@H](Cc1ccc(O)cc1)C(N)=O)[C@@H](C)O)C(C)C)[C@@H](C)O` [Example 75] (H-K([AEEA-γGlu-C20 diacid])CNTATCATQRLATFLRHSSPNFGAIPSSTPVGSNTY-NH2; disulfide 2-7 (inferred); N-terminus assumed): the “Ratio hCT/hAmylin funct.” value in data set [1] (setting [6]), in data set [1] (hCTR funct. EC50 over hAmylin-R funct. EC50) and in data set [1] (setting [7]) was 30.6 each time. The EC50 in data set [1] was 0.296 nM; in data set [2], 9.07 nM. For the same molecule, the solubility at 18 h in data set [3] (setting [8]) is at least 200 µM; in data set [3] (setting [9]), 193 µM (≈ 868 µg/mL); in data set [3] (setting [10]), at least 200 µM; in data set [3] (setting [11]), at least 200 µM; in data set [3] (setting [12]) it was 150 µM (≈ 674 µg/mL); in data set [3] (setting [13]) it was at least 200 µM. Further, the solubility at 18 h in data set [3] (setting [14]) and in data set [3] (setting [15]) was at least 200 µM throughout. Also, the figures for the half-maximal inhibitory concentration (IC50) (in data set [4]; in data set [5]; at rat calcitonin receptor) were 0.666 nM, 60.9 nM and 442 nM, respectively. For the same molecule, the “Ratio hCT/hAmylin binding” value in data set [4] (setting [16]), in data set [4] (setting [17]), in data set [4] (setting [18]), in data set [4] (setting [19]), in data set [4] (setting [20]) and in data set [4] (setting [21]) was 91.4 each time. Besides, in data set [4] (setting [22]), the “Ratio hCT/hAmylin binding” value worked out at 91.4.
